Data: US9919001B2, “Drug carrier having L-DNA nanocage structure” (Korea Institute of Science and Technology, priority 2013, dated 2018)

Test system: MCF-7/ADR cells
Assay: MTT cell viability assay (small molecule drug delivery)
Format: cell-based
Conditions: average of triplicate
Procedure: For DOX intercalation into the Cy5-labeled Td, DOX (1 mM) was mixed with the fluorescent DNA tetrahedron (10 μM) for 1 h and then run through NAP10 (G25-DNA grade column, GE Healthcare, USA) to remove the free DOX remaining in solution. The number of intercalated DOX molecules per DNA tetrahedron was calculated using the extinction coefficient of Cy5 at 633 nm (ϵ=230400) and that of DOX at 480 nm (ϵ=10410), respectively.
Drug-sensitive MCF-7 cells and drug-resistant MCF-7/ADR cells were used for cell viability assays. Cytotoxicity of Td was estimated using an MTT assay. Briefly, 8×10^3 mammalian cells were seeded with media (100 μL) in 96-well plates and cultured overnight to reach ˜80% confluency. The cells were then incubated in the fresh media containing Td at 37° C. for 6 h in the CO2 chamber. […] Then, thiazolyl blue tetrazolium bromide (MTT, TACS, Germany) solution (10 μL) was added to each well, followed by 4 h incubation at 37° C. Next, cells were lysed with 200 μL of dimethyl sulfoxide (DMSO, Sigma-Aldrich, USA). After overnight incubation at room temperature, the absorbance was measured at 580 nm using a microplate reader (SpectraMaxPlus™, Molecular Devices, USA).

Compound: COc1cccc2c1C(=O)c1c(O)c3c(c(O)c1C2=O)C[C@@](O)(C(=O)CO)C[C@@H]3O[C@H]1C[C@H](N)[C@H](O)[C@H](C)O1 [Free-DOX, doxorubicin]
- Cell viability assay (%) (24 h): 98.9%
- Cell viability assay (%) (48 h): 93.6%
- Cell viability assay (%) (72 h): 89.2%
